Source: ChEMBL document CHEMBL5465560, “Selectivity Literature for EUbOPEN Chemogenomic Library” (2024)
One block for each compound: values may come before it.

Tests used:
[1] = biological target: T1, Interleukin-1 receptor-associated kinase 3 (Homo sapiens) (UniProt Q9Y616); assay: Selectivity interaction (Ambit KINOMEscan and KiNATiv profiling in Jurkat cells) EUB0000090b IRAK3; assay type: cell-based; settings: at 1 µM
T1 sequence (whole entry): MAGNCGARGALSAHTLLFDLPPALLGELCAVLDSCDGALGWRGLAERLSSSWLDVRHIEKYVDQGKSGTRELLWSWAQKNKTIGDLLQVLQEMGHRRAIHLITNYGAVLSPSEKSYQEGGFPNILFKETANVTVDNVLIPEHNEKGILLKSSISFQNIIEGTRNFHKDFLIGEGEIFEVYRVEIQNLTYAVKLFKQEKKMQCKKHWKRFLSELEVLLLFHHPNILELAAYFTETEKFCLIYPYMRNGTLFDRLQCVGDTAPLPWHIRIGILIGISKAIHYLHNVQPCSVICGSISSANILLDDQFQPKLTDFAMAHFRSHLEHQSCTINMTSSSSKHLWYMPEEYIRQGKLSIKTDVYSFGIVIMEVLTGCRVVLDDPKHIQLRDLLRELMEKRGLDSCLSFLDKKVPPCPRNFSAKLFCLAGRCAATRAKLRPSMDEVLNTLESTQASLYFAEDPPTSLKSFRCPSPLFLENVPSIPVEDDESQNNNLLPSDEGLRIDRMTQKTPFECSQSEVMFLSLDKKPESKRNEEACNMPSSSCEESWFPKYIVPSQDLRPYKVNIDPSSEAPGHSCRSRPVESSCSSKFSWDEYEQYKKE

[2] = biological target: T2, Eukaryotic elongation factor 2 kinase (Homo sapiens) (UniProt O00418); assay: Selectivity interaction (Kinase panel (Z-LYTE Assay)) EUB0001632a EEF2K; settings: at 10 µM
T2 sequence (whole entry): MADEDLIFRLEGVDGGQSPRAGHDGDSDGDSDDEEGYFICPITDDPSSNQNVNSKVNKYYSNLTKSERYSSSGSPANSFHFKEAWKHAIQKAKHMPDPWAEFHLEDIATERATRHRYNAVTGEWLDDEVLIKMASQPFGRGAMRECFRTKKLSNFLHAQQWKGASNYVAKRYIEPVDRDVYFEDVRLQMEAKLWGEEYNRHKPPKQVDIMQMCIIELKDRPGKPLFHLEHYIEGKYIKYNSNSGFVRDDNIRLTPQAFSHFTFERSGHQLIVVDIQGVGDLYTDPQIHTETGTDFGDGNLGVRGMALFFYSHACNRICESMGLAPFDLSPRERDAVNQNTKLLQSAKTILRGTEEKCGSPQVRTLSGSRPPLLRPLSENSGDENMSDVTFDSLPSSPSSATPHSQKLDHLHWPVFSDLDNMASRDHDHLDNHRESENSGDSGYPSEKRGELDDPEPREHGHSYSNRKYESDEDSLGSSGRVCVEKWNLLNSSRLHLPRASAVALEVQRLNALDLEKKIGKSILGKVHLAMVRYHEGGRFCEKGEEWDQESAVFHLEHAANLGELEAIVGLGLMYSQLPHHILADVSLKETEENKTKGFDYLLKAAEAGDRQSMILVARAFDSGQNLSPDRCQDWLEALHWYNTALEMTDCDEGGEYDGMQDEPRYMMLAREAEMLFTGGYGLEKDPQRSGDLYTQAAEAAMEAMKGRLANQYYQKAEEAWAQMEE

[3] = biological target: T3, Serine/threonine-protein kinase DCLK1 (Homo sapiens) (UniProt O15075); assay: Selectivity interaction (Kinase panel (Z-LYTE Assay)) EUB0001632a DCLK1; settings: at 10 µM
T3 sequence (whole entry): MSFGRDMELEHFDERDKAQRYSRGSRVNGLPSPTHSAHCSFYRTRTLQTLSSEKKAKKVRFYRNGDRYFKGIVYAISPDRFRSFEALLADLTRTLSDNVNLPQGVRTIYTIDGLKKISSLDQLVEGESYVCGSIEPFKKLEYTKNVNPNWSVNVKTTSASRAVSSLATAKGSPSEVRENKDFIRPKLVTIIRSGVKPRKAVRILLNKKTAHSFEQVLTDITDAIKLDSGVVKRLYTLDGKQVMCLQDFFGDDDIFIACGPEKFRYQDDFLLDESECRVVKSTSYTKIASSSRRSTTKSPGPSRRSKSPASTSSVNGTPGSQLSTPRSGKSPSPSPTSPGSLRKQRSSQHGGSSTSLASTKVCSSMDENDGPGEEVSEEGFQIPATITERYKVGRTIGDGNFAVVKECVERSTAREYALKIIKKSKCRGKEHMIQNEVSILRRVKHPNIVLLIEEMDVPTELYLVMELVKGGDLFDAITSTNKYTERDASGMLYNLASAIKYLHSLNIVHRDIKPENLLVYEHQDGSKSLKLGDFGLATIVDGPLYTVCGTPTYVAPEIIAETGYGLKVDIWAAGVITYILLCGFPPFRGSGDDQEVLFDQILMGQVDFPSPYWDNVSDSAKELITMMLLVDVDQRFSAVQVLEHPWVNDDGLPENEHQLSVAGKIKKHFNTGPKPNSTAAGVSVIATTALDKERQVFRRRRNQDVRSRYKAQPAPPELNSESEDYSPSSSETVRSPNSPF

[4] = biological target: Serine/threonine-protein kinase mTOR (Homo sapiens, UniProt P42345); assay: Selectivity interaction (KinomeScan (DiscoverX)) EUB0001079a MTOR; settings: at 1 µM
[5] = biological target: T4, Mitogen-activated protein kinase kinase kinase 3 (Homo sapiens) (UniProt Q99759); assay: Selectivity interaction (KinomeScan (DiscoverX)) EUB0000618a MAP3K3; settings: at 10 µM
T4 sequence (whole entry): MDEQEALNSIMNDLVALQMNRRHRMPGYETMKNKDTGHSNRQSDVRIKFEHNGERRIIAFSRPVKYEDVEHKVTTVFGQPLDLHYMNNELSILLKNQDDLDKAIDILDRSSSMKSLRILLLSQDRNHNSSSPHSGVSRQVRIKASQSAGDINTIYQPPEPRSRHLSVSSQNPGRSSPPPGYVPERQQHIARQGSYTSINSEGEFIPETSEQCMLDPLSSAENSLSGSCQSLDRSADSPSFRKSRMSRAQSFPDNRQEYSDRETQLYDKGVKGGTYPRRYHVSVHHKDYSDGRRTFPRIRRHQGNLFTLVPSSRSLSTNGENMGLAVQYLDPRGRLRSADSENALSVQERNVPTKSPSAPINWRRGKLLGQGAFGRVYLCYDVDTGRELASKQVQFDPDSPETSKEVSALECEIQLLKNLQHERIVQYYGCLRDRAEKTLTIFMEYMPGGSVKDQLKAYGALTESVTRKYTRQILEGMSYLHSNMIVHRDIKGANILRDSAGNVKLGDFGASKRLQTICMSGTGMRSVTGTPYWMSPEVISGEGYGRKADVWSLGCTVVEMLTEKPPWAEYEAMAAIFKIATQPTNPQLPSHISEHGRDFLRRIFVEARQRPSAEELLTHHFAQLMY

[6] = biological target: Phosphorylase b kinase gamma catalytic chain, skeletal muscle/heart isoform (Homo sapiens) (UniProt Q16816); assay: Selectivity interaction (SelectScreen profiling (Invitrogen)) EUB0000607a PHKG1; settings: at 2 µM
Phosphorylase b kinase gamma catalytic chain, skeletal muscle/heart isoform (Homo sapiens), sequence (Q16816 whole entry, looked up, canonical isoform): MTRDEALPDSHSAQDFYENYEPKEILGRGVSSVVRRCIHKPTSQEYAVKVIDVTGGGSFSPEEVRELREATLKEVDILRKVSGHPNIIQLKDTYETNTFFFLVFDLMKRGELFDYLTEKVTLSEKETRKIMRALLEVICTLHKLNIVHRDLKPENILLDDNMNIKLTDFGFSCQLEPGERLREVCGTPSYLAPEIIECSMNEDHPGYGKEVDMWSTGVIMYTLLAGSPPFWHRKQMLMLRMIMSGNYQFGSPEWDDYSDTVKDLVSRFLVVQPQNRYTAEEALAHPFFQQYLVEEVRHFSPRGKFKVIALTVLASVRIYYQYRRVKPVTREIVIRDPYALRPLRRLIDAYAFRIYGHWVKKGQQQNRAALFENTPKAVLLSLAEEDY

[7] = biological target: Serine/threonine-protein kinase pim-2 (Homo sapiens, UniProt Q9P1W9); assay: Selectivity interaction (KinomeScan (DiscoverX)) EUB0000607a PIM2; settings: at 10 µM
Serine/threonine-protein kinase pim-2, sequence (Q9P1W9 whole entry, looked up): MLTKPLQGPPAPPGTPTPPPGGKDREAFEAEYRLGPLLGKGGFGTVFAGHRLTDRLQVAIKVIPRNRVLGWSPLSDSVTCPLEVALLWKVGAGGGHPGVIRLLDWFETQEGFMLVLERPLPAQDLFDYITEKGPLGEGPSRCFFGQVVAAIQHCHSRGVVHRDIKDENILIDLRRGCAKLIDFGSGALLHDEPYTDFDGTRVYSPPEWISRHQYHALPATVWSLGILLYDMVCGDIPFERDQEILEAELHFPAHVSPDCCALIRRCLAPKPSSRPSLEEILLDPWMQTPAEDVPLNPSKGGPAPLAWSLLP

Structure (SMILES): CN(C)C/C=C/C(=O)Nc1ccc(C(=O)N2CCCC(Nc3ncc(Cl)c(-c4c[nH]c5ccccc45)n3)C2)cc1 (configuration not stated)
- % of control [1]: 68%

- % of control [2]: 1.73%
- % of control [3]: -1.19%
Structure (SMILES): Cn1cc(-n2cnc3c(NCc4nc5cc(Cl)c(Cl)cc5[nH]4)nc(N4CCOCC4)nc32)cn1

Structure (SMILES): Nc1cnc(N2CCc3cc(S(=O)(=O)Nc4c(F)cc(Cl)cc4F)cc(N4CCCC4=O)c32)nc1 [TP-020n]
- % of control [4]: 100%

Structure (SMILES): O[C@H]1CC[C@H](Nc2ncc3nc(Nc4c(F)cc(F)cc4F)n([C@H]4CCOC4)c3n2)CC1
- % of control [5]: 83%

Structure (SMILES): CNC(=O)Nc1ccc(-c2nc(N3CC4CCC(C3)O4)c3cnn(C4CCC5(CC4)OCCO5)c3n2)cc1
- % of inhibition [6]: 7%
- % of control [7]: 74%
